Assay results taken from patent publication US20220031813A1, “INHIBITOR OF EXTRACELLULAR TRAP FORMATION IN LEUKOCYTES” (priority 2013, published 2022).

Assays:
human neutrophils [1] = experiment: Rate of NETs formation in PMA-stimulated neutrophils after pre-treatment, counted by confocal microscopy; format: cell-based; settings: pre-treatment 10 μM for 30 minutes, then PMA 25 nM
[2] = bovine proteins; cited from earlier work
human neutrophils [3] = experiment: Specificity experiment: inhibition of NETs formation by DNA concentration in the culture supernatant; format: cell-based; settings: n=3, p<0.01, FIG. 10
Method: About 1 hour after the isolation of the neutrophils described in “1. Method of isolating human neutrophils” in Example 2, the neutrophils were pre-treated. On an 8-well microslide (Cat. No. ib 80826 Ibidi (registered trademark)), the neutrophils were seeded in 400 μl of culture DMEM+2% human serum Alb (serum human albumin; Product No. A9080 Sigma+4 mM L-glutamine) at a rate of about 1.0×10^5 cells/well, and stimulated with PMA (final concentration: 25 nM, stock: 10 mM in DMSO, Sigma Prod No. P8139). At thirty minutes before the stimulation, and at every one hour or every two hours after the stimulation, 200 μg/ml of human lactoferrin (stock: 100 mg/ml, 200 μl; Cat. No. SIGL6793, SIGMA) was added to perform inhibition [FIG. 2].
The culture supernatant was recovered and centrifuged at 200×g for 10 minutes, and the supernatant was transferred to a new microscopic centrifuge tube. The DNA amount was measured by use of Picogreen dsDNA assay reagent (P11496 Invitrogen) in accordance with an accompanying protocol. Treatment with human lactoferrin at one hour and two hours after the stimulation was a similar effect to the prior pre-treatment, the DNA concentration in the culture supernatant decreased, resulting in suppression of the release of the DNAs by the NETs [FIG. 2]. […]

Row | Compound | formation of the NETs at plateau, compared with stimulation merely with PMA (human neutrophils [1]) | Isoelectric point [2] | inhibition of the formation of the NETs (human neutrophils [3])
1 | c1ccc2c(c1)[I+]c1ccccc1-2 [DPI, diphenyleneiodoniumchloride, reference compound] | ⅓ |  | 
2 | lactoperoxidase [reference compound] |  | 8.0 | Neither lactoperoxidase nor angiogenin inhibited
